Experimental data from PubChem BioAssay (NCI).
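Compound exposure: 48 hours, 5 concentrations, 96-well plates. GI50 is the concentration that inhibits growth by half. TGI: total growth inhibition.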

Experiments:
Assay in all cases: NCI tumour cell line growth inhibition, 48 h
[1] = test system: SK-MEL-2 melanoma
[2] = test system: SNB-75 CNS
[3] = test system: NCI-H226 lung
[4] = test system: SF-295 CNS
[5] = test system: OVCAR-8 ovarian
[6] = test system: HT29 colon
[7] = test system: MALME-3M melanoma
[8] = test system: SR leukemia
[9] = test system: K-562 leukemia
[10] = test system: CAKI-1 renal

Compound | GI50 [1] [µM] | TGI [1] [µM] | GI50 [2] [µM] | TGI [2] [µM] | GI50 [3] [µM] | TGI [3] [µM] | GI50 [4] [µM] | TGI [4] [µM] | GI50 [5] [µM] | TGI [5] [µM] | GI50 [6] [µM] | TGI [6] [µM] | GI50 [7] [µM] | TGI [7] [µM] | GI50 [8] [µM] | TGI [8] [µM] | GI50 [9] [µM] | TGI [9] [µM] | TGI [10] [µM] | GI50 [10] [µM]
CC1=C(CCCNS(C)(=O)=O)C2=C(C)C3(CC3)[C@@](C)(O)C(=O)C2=C1 | 1.67 | 4.13 | 0.342 | 1.67 | 1.04 | 5.79 | 0.634 | 19.9 | 0.518 | 5.36 | 1.87 | > 100 | 0.776 | 2.62 | 36.2 | > 100 | 61.8 | > 100 | – | –
COc1ccc2ccc3c(c2c1)CN1CCc2cc(OC)c(OC)cc2C1C3 (centres undefined) | – | > 100 | – | 96.8 | – | > 100 | – | > 100 | – | > 100 | – | > 100 | – | > 100 | – | > 100 | – | > 100 | > 100 | –
O=C(NCCOCCOCCNc1cccc2c1C(=O)N(C1CCCNC1=O)C2=O)c1cc2c(o1)C(=O)c1ccccc1C2=O (centres undefined) | 2.11 | 6.1 | 2.65 | 4.61 | 1.78 | 3.95 | 1.7 | 3.13 | 2.31 | 10.6 | 2.93 | 8.05 | 0.176 | 0.401 | 2.63 | > 100 | 2.75 | 11.1 | 9.3 | 2.75
CCOc1cccc(/C=N/NC(=O)c2ccccc2Nc2ccnc(C(F)(F)F)c2)c1O | 3.4 | > 50.4 | 2.09 | > 77.9 | 0.664 | 19.1 | 0.516 | 30.6 | 0.449 | > 100 | 3.79 | > 100 | 0.835 | 43.6 | 0.0576 | 0.363 | 0.322 | 10.4 | 10.5 | 0.222
COc1ccc(/C(=C2\O[C@@H]([C@H]3COC(C)(C)O3)[C@H]3OC(C)(C)O[C@@H]23)c2cc(OC)c(OC)c(OC)c2)cc1O | 57.9 | > 100 | 1.8 | 6.31 | 25.9 | > 100 | 7 | 37.3 | 5.27 | > 100 | – | – | 5.46 | > 100 | 6.27 | > 100 | 3.22 | > 100 | > 100 | 37.3
OCCC1(O)CCC(O)CC1 (centres undefined) | – | > 100 | – | > 100 | – | > 100 | – | > 100 | – | > 100 | – | > 100 | – | > 100 | – | > 100 | – | > 100 | – | –
COc1cc(C2c3cc4c(cc3C(NCC(O)CO)C3COC(=O)[C@H]23)OCO4)cc(OC)c1OC (some centres undefined) | – | – | – | > 100 | – | 0.655 | – | – | – | > 100 | – | > 100 | – | > 100 | – | > 100 | – | > 100 | – | –
O=C(Nc1ccc(N2CCNCC2)cc1)c1[nH]ncc1Nc1cc(Oc2ccccc2)ncn1 | 3.82 | 15.3 | 2.45 | 5.6 | 1.91 | 10.5 | 1.7 | 3.27 | 2.91 | 12.2 | 1.78 | 4.53 | 1.98 | 4.93 | 0.299 | 1.84 | 2.22 | 10.9 | 3.39 | 1.21
Nc1ccn(C2O[C@H](CO)[C@@H](O)[C@@H]2O)c(=O)n1 (some centres undefined) | – | > 100 | 41.5 | > 100 | – | > 100 | – | > 100 | 53.8 | > 100 | – | > 100 | 79.6 | > 100 | > 100 | > 100 | – | – | > 100 | –
O=C1/C(=C/c2ccc(Cl)cc2Cl)N=C(c2ccccc2)N1Cc1ccco1 | 15.8 | 48.5 | – | – | 23.9 | 67.6 | 22.2 | 45.9 | 20.5 | 48.4 | – | – | 21.2 | 52.8 | > 100 | > 100 | 41.1 | > 100 | 50.6 | 30.2
CC1OC(O[C@H]2C[C@@H](O)[C@]3(CO)[C@H]4[C@H](O)C[C@]5(C)[C@@H](C6=CC(=O)OC6)CC[C@]5(O)[C@@H]4CC[C@]3(O)C2)C(O)C(O)C1O (some centres undefined) | 20.2 | 44.8 | – | – | 22.7 | 52 | 19.3 | 35.3 | 19.2 | 34.8 | 19.5 | 36 | 19.5 | 35.9 | 10.2 | 38 | – | – | 33.9 | 17.7
Cc1nn(CN2CCN(C)CC2)c(=S)n1/N=C/c1cccc2ccccc12 | 20.1 | 39 | 11.1 | 38.1 | 17.1 | 34.9 | 24.9 | 59.5 | 19.1 | 37 | – | – | – | – | 19 | 38.5 | 15.2 | 37.5 | 73.5 | 28.2
Cc1c(C(=O)N/N=C/c2ccc(Cl)cc2)nnn1-c1ccnc2c(C(F)(F)F)cccc12 | 18.1 | 54.9 | 2.63 | 5.18 | 2.77 | 8.32 | 1.82 | 4.01 | 2.25 | 4.71 | – | – | 1.53 | 4.4 | 3.6 | 12.3 | 5.74 | 42.2 | 45.1 | 17.6
COc1ccc2cc1Oc1ccc(cc1)CC1c3cc(c(OC)cc3CCN1C)Oc1c3c(cc4c1C(C2)N(C)CC4)OCO3 (centres undefined) | – | 15.8 | – | 15.3 | – | 7.45 | – | 21.9 | – | 21.1 | – | 8.25 | – | – | – | 28.2 | – | 4.17 | – | –
